Data as given in patent US11066668B2, “Compositions and methods for modulation of IKBKAP splicing” (Ionis Pharmaceuticals, Inc., priority 2012, dated 2021).
Oligonucleotides are written 5' to 3', each unit as a sugar letter and its base; * is a phosphorothioate linkage, no mark a phosphodiester; rarer units and linkages stand in square brackets, end groups in braces. Plain capitals give the bases only. e = 2'-O-(2-methoxyethyl) (MOE); [5mC] = 5-methylcytosine

Tested on: IKBKAP pre-mRNA (mt19-21 minigene)
Test: Exon 20 inclusion in HEK-293 cells harboring the mt19-21 IKBKAP minigene (RT-PCR)
Assay type: cell-based, human
Settings: HEK-293 with mt19-21 minigene; for % inclusion (exon 20): 0.007 nmol oligonucleotide by electroporation, RT-PCR two days later; for effect on exon 20 inclusion/skipping, in words: 0.007 nmol oligonucleotide
Method: Antisense oligonucleotides were designed targeting a human IKBKAP nucleic acid and were tested for their effects on IKBKAP pre-mRNA in vitro. Together, the overlapping antisense oligonucleotides spanned the entire 74-nucleotide region of the IKBKAP exon 20 sequence, as well as the 100-nucleotide intronic regions immediately upstream and downstream of exon 20. The antisense oligonucleotides are presented in Table 1, and were designed as uniform 2′-O-methoxyethyl ribose (MOE) oligonucleotides with phosphate backbones. Each oligonucleotide is 15 nucleosides in length. All cytosine residues throughout the oligonucleotide are 5-methylcytosines. ‘Start Site’ indicates the 5′-most nucleoside to which the oligonucleotide is targeted in the human gene sequence. “Stop site” indicates the 3′-most nucleoside to which the oligonucleotide is targeted in the human gene sequence. Each oligonucleotide listed in Table 1 is targeted to the human IKBKAP genomic sequence (the complement of GENBANK Accession No NT_008470.16 truncated from nucleotides 13290828 to Ser. No. 13/358,424, designated herein as SEQ ID NO: 1). ISIS 414161 has one mismatch with SEQ ID NO: 1.
Cultured HEK-293 cells harboring the mt19-21 minigene vector construct at a density of 7×10^5 cells per well were transfected using electroporation (Gene Pulsar II apparatus, Bio-Rad) with 0.007 nmol antisense oligonucleotide, as previously described (Hua, Y., et al., 2007. PLoS Biol 5:e73). […] These oligonucleotides served as controls for non-specific effects of uniform MOE oligonucleotides with phosphate backbones. Cells harboring the wt19-21 minigene and the mt19-21 minigene alone were also cultured and were used as controls for exon 20 inclusion levels. Two days later, cDNA synthesized from total RNA extracted from HEK-293 cells was amplified using the forward primer pCDNAF and reverse primer sequence IKAP21R4 to assay the splicing pattern of expressed RNAs by RT-PCR. To calculate exon 20 inclusion levels, the PCR amplicons were labeled with α^32P-dCTP. The PCR products were then separated by native PAGE, followed by phosphorimage analysis on a FUJIFILM FLA-5100 instrument (Fuji Medical Systems USA Inc.). The band intensities were quantified using Multi Gauge software Version 2.3 (FUJIFILM), and values were normalized for the G+C content according to the DNA sequence.
Treatment with antisense oligonucleotides targeting the 3′ and 5′ splice sites caused increased skipping of exon 20.
Additional oligonucleotides were designed targeting the first 30-nucleotide stretch of ISS-40. These oligonucleotides were designed by choosing sequences shifted in one nucleotide increments upstream and downstream (i.e., a “microwalk”) of ISS-40, starting from the +6 position in exon 20. The antisense oligonucleotides are presented in Table 2 and FIG. 4D, and were designed as uniform 2′-O-methoxyethyl ribose (MOE) oligonucleotides with phosphate backbones. Each oligonucleotide is 20 nucleosides in length. All cytosine residues throughout the oligonucleotide are 5-methylcytosines. ‘Start Site’ indicates the 5′-most nucleoside to which the oligonucleotide is targeted in the human gene sequence. “Stop site” indicates the 3′-most nucleoside to which the oligonucleotide is targeted in the human gene sequence. Each oligonucleotide listed in Table 2 is targeted to intron 20 of the human IKBKAP genomic sequence (the complement of GENBANK Accession No NT_008470.16 truncated from nucleotides 13290828 to Ser. No. 13/358,424, designated herein as SEQ ID NO: 1). These oligonucleotides were tested in vitro.
Cultured HEK-293 cells harboring the mt19-21 minigene vector construct at a density of 7×10^5 cells per well were transfected using electroporation (Gene Pulsar II apparatus, Bio-Rad) with 0.007 nmol antisense oligonucleotide, as previously described (Hua, Y., et al., 2007. PLoS Biol 5:e73). […]

Substance	% inclusion (exon 20) (Table 1) [%]	% inclusion (exon 20) (Table 2 (microwalk experiment)) [%]	effect on exon 20 inclusion/skipping, in words
ISIS 414176: uniform 2′-MOE 15-mer, phosphate backbone; CATAATTTTAAGTTC, SEQ ID NO 55, intron 20 (e[5mC]eAeTeAeAeTeTeTeTeAeAeGeTeTe[5mC]; splice-switching)	31	–	–
ISIS 414177: uniform 2′-MOE 15-mer, phosphate backbone; CTTTTCATAATTTTA, SEQ ID NO 56, intron 20 (e[5mC]eTeTeTeTe[5mC]eAeTeAeAeTeTeTeTeA; splice-switching)	25	–	–
ISIS 414141: uniform 2′-MOE 15-mer, phosphate backbone; TTTTAATTAAGTAGA, SEQ ID NO 20, intron 19 (eTeTeTeTeAeAeTeTeAeAeGeTeAeGeA; splice-switching)	24	–	–
ISIS 414155: uniform 2′-MOE 15-mer, phosphate backbone; TCTGAGCTAAAACCA, SEQ ID NO 34, exon 20 (eTe[5mC]eTeGeAeGe[5mC]eTeAeAeAeAe[5mC]e[5mC]eA; splice-switching)	6	–	–
ISIS 421998: uniform 2′-MOE 20-mer, phosphate backbone; TAACTAGTCGCAAACAGTAC, SEQ ID NO 67, intron 20 (eTeAeAe[5mC]eTeAeGeTe[5mC]eGe[5mC]eAeAeAe[5mC]eAeGeTeAe[5mC]; splice-switching)	–	81	–
ISIS 414138: uniform 2′-MOE 15-mer, phosphate backbone; AAACATTTAAATAGC, SEQ ID NO 17, intron 19 (eAeAeAe[5mC]eAeTeTeTeAeAeAeTeAeGe[5mC]; splice-switching)	23	–	–
ISIS 414156: uniform 2′-MOE 15-mer, phosphate backbone; CCGAATCTGAGCTAA, SEQ ID NO 35, exon 20 (e[5mC]e[5mC]eGeAeAeTe[5mC]eTeGeAeGe[5mC]eTeAeA; splice-switching)	5	–	–
ISIS 414129: uniform 2′-MOE 15-mer, phosphate backbone, 5-methylcytosines; AGAGAATTACCACAA, SEQ ID NO 8, intron 19 (eAeGeAeGeAeAeTeTeAe[5mC]e[5mC]eAe[5mC]eAeA; splice-switching)	23	–	–
ISIS 414148: uniform 2′-MOE 15-mer, phosphate backbone; TCTAAGTTTCCCCTT, SEQ ID NO 27, exon 20 (eTe[5mC]eTeAeAeGeTeTeTe[5mC]e[5mC]e[5mC]e[5mC]eTeT; splice-switching)	7	–	–
ISIS 414139: uniform 2′-MOE 15-mer, phosphate backbone; GTAGAAAACATTTAA, SEQ ID NO 18, intron 19 (eGeTeAeGeAeAeAeAe[5mC]eAeTeTeTeAeA; splice-switching)	20	–	–
ISIS 414135: uniform 2′-MOE 15-mer, phosphate backbone; CAGGATACACCATTT, SEQ ID NO 14, intron 19 (e[5mC]eAeGeGeAeTeAe[5mC]eAe[5mC]e[5mC]eAeTeTeT; splice-switching)	46	–	positive effect on exon 20 inclusion
ISIS 422000: uniform 2′-MOE 20-mer, phosphate backbone; GCTAACTAGTCGCAAACAGT, SEQ ID NO 69, intron 20 (eGe[5mC]eTeAeAe[5mC]eTeAeGeTe[5mC]eGe[5mC]eAeAeAe[5mC]eAeGeT; splice-switching)	–	63	–
ISIS 414146: uniform 2′-MOE 15-mer, phosphate backbone; CTTAAATAAATTAAA, SEQ ID NO 25, intron 19 (e[5mC]eTeTeAeAeAeTeAeAeAeTeTeAeAeA; splice-switching)	26	–	–
ISIS 414170: uniform 2′-MOE 15-mer, phosphate backbone; AATACTTATTGTCTT, SEQ ID NO 49, intron 20 (eAeAeTeAe[5mC]eTeTeAeTeTeGeTe[5mC]eTeT; splice-switching)	32	–	–
ISIS 421999: uniform 2′-MOE 20-mer, phosphate backbone; CTAACTAGTCGCAAACAGTA, SEQ ID NO 68, intron 20 (e[5mC]eTeAeAe[5mC]eTeAeGeTe[5mC]eGe[5mC]eAeAeAe[5mC]eAeGeTeA; splice-switching)	–	82	–
ISIS 421994: uniform 2′-MOE 20-mer, phosphate backbone; TAGTCGCAAACAGTACAATG, SEQ ID NO 63, intron 20 (eTeAeGeTe[5mC]eGe[5mC]eAeAeAe[5mC]eAeGeTeAe[5mC]eAeAeTeG; splice-switching)	–	91	–
ISIS 414143: uniform 2′-MOE 15-mer, phosphate backbone; GCAGTAACATTTTTA, SEQ ID NO 22, intron 19 (eGe[5mC]eAeGeTeAeAe[5mC]eAeTeTeTeTeTeA; splice-switching)	8	–	–
ISIS 421996: uniform 2′-MOE 20-mer, phosphate backbone; ACTAGTCGCAAACAGTACAA, SEQ ID NO 65, intron 20 (eAe[5mC]eTeAeGeTe[5mC]eGe[5mC]eAeAeAe[5mC]eAeGeTeAe[5mC]eAeA; splice-switching)	–	89	–
ISIS 414131: uniform 2′-MOE 15-mer, phosphate backbone; AACTCTTCACAGAGA, SEQ ID NO 10, intron 19 (eAeAe[5mC]eTe[5mC]eTeTe[5mC]eAe[5mC]eAeGeAeGeA; splice-switching)	30	–	–
ISIS 414175: uniform 2′-MOE 15-mer, phosphate backbone; TTTTAAGTTCTCGAA, SEQ ID NO 54, intron 20 (eTeTeTeTeAeAeGeTeTe[5mC]eTe[5mC]eGeAeA; splice-switching)	27	–	–
ISIS 414150: uniform 2′-MOE 15-mer, phosphate backbone; ATGAACAACTTCTAA, SEQ ID NO 29, exon 20 (eAeTeGeAeAe[5mC]eAeAe[5mC]eTeTe[5mC]eTeAeA; splice-switching)	5	–	–
ISIS 414152: uniform 2′-MOE 15-mer, phosphate backbone; GGGCTCGATGATGAA, SEQ ID NO 31, exon 20 (antisense eGeGeGe[5mC]eTe[5mC]eGeAeTeGeAeTeGeAeA)	3	–	–
ISIS 414161: uniform 2′-MOE 15-mer, phosphate backbone; AACAGTACAATGGCG, SEQ ID NO 40, intron 20; one mismatch with SEQ ID NO 1 (eAeAe[5mC]eAeGeTeAe[5mC]eAeAeTeGeGe[5mC]eG)	88	79	markedly increased inclusion of exon 20
ISIS 414158: uniform 2′-MOE 15-mer, phosphate backbone; CCAACCACTTCCGAA, SEQ ID NO 37, exon 20 (e[5mC]e[5mC]eAeAe[5mC]e[5mC]eAe[5mC]eTeTe[5mC]e[5mC]eGeAeA; splice-switching)	1	–	–
ISIS 414157: uniform 2′-MOE 15-mer, phosphate backbone; CACTTCCGAATCTGA, SEQ ID NO 36, exon 20 (e[5mC]eAe[5mC]eTeTe[5mC]e[5mC]eGeAeAeTe[5mC]eTeGeA; splice-switching)	15	–	–
ISIS 414171: uniform 2′-MOE 15-mer, phosphate backbone; AATAAAATACTTATT, SEQ ID NO 50, intron 20 (eAeAeTeAeAeAeAeTeAe[5mC]eTeTeAeTeT; splice-switching)	32	–	–
